Data: PubChem BioAssay AID330 (DTP/NCI, 2004)
Where “and” joins values, the source holds several entries; their conditions need not be identical. Equal values may be shown once. Toxic doses and inconclusive results are not listed. Peptide text beside a SMILES is read from it.

Tested on: P388 leukemia ip, CD2F1 mice, survival T/C
Test: NCI In Vivo Anticancer Drug Screen. Data for tumor model P388 Leukemia (intraperitoneal) in CD2F1 (CDF1) mice
Conditions: endpoint: median survival time, higher = longer survival
Outline: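 Mice carrying the transplanted tumor received test compound or vehicle. Survival was recorded in each group, and the value is the treated-group measurement divided by that of the vehicle-treated control group.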

[1] = dose: 12.5 mg/kg/injection, schedule: Q01DX009 (ip), vehicle: saline with Tween-80
[2] = dose: 25.0 mg/kg/injection, schedule: Q01DX009 (ip), vehicle: saline with Tween-80
[3] = dose: 50.0 mg/kg/injection, schedule: Q01DX009 (ip), vehicle: saline with Tween-80
[4] = dose: 50.0 mg/kg/injection, schedule: Q01DX005 (ip), vehicle: Klucel (hydroxypropylcellulose) (HPC)
[5] = dose: 100.0 mg/kg/injection, schedule: Q01DX005 (ip), vehicle: Klucel (hydroxypropylcellulose) (HPC)
[6] = dose: 200.0 mg/kg/injection, schedule: Q01DX005 (ip), vehicle: Klucel (hydroxypropylcellulose) (HPC)
[7] = dose: 100.0 mg/kg/injection, schedule: Q01DX009 (ip), vehicle: saline with Tween-80
[8] = dose: 200.0 mg/kg/injection, schedule: Q01DX009 (ip), vehicle: saline with Tween-80

O=C(Oc1ccccc1)c1cc2ccccc2cc1O
T/C (dose: 6.25 mg/kg/injection, schedule: Q01DX009 (ip), vehicle: saline): 100 % of control | T/C (dose: 12.5 mg/kg/injection, schedule: Q01DX009 (ip), vehicle: saline): 103 % of control | T/C (dose: 25.0 mg/kg/injection, schedule: Q01DX009 (ip), vehicle: saline): 100 % of control

CC(C)C(C(=O)O)N(C)C(=O)c1cnc2ccccc2n1 (stereo not drawn)
T/C (dose: 60.0 mg/kg/injection, schedule: Q01DX005 (ip), vehicle: saline with Tween-80): 104 % of control | T/C (dose: 120.0 mg/kg/injection, schedule: Q01DX005 (ip), vehicle: saline with Tween-80): 97 % of control | T/C (dose: 240.0 mg/kg/injection, schedule: Q01DX005 (ip), vehicle: saline with Tween-80): 99 % of control

CSc1ccc(C(C)=O)cc1
T/C (dose: 50.0 mg/kg/injection, schedule: Q01DX009 (ip), vehicle: saline + alcohol): 100 % of control | T/C (dose: 100.0 mg/kg/injection, schedule: Q01DX009 (ip), vehicle: saline + alcohol): 102 % of control | T/C (dose: 200.0 mg/kg/injection, schedule: Q01DX009 (ip), vehicle: saline + alcohol): 100 % of control | T/C (dose: 400.0 mg/kg/injection, schedule: Q01DX009 (ip), vehicle: saline + alcohol): 104 % of control

COc1cc(Cc2nc3n(O)cc(-c4ccccc4)nc-3c(=N)n2)cc(OC)c1OC
T/C [1]: 104 % of control | T/C [2]: 108 % of control | T/C [3]: 104 % of control

CCC1(C#N)N=C(c2ccccc2)c2ccccc2N1C(=O)Oc1ccccc1 (stereo not drawn)
T/C (dose: 50.0 mg/kg/injection, schedule: Q01DX005 (ip), vehicle: saline with Tween-80): 89 % of control | T/C (dose: 100.0 mg/kg/injection, schedule: Q01DX005 (ip), vehicle: saline with Tween-80): 98 % of control | T/C (dose: 200.0 mg/kg/injection, schedule: Q01DX005 (ip), vehicle: saline with Tween-80): 95 % of control

c1ccc(-c2[nH]c3cc4c(cc3c2-c2ccccc2)Oc2ccccc2O4)cc1
T/C (dose: 17.5 mg/kg/injection, schedule: Q01DX009 (ip), vehicle: Klucel (hydroxypropylcellulose) (HPC)): 116 % of control | T/C (dose: 35.0 mg/kg/injection, schedule: Q01DX009 (ip), vehicle: Klucel (hydroxypropylcellulose) (HPC)): 113 % of control | T/C (dose: 70.0 mg/kg/injection, schedule: Q01DX009 (ip), vehicle: Klucel (hydroxypropylcellulose) (HPC)): 104 % of control

C[Si](C)(C)CC[Si]12OCCN(CCO1)CCO2
T/C [4]: 106 % of control | T/C [5]: 104 % of control | T/C [6]: 92 % of control

CCCCOc1ccc(C(=S)NC(=O)Nc2ccccc2)cc1
T/C (dose: 3.0 mg/kg/injection, schedule: Q01DX009 (ip), vehicle: saline with Tween-80): 123 % of control | T/C (dose: 6.0 mg/kg/injection, schedule: Q01DX009 (ip), vehicle: saline with Tween-80): 103 % of control | T/C (dose: 12.0 mg/kg/injection, schedule: Q01DX009 (ip), vehicle: saline with Tween-80): 98 % of control

Sc1ccccc1.[Ag]
T/C [2]: 97 % of control | T/C [3]: 105 % of control | T/C [7]: 96 % of control

CC(C)=CCCC(C)(OC1OC(COC2OCC(O)C(O)C2O)C(O)C(O)C1O)C1CCC2(C)C1C(O)CC1C3(C)CCC(OC4OC(CO)C(O)C(O)C4OC4OC(CO)C(O)C(O)C4O)C(C)(C)C3CCC12C (stereo not drawn)
T/C (dose: 18.75 mg/kg/injection, schedule: Q01DX009 (ip), vehicle: Klucel (hydroxypropylcellulose) (HPC)): 98 % of control | T/C (dose: 37.5 mg/kg/injection, schedule: Q01DX009 (ip), vehicle: Klucel (hydroxypropylcellulose) (HPC)): 100 % of control | T/C (dose: 75.0 mg/kg/injection, schedule: Q01DX009 (ip), vehicle: Klucel (hydroxypropylcellulose) (HPC)): 92 % of control | T/C (dose: 150.0 mg/kg/injection, schedule: Q01DX009 (ip), vehicle: Klucel (hydroxypropylcellulose) (HPC)): 92 % of control

CC1=C2CC(C)(C)/C=C\C(=O)/C(C)=C\C3=CCCC3(O2)C1=O (stereo not drawn)
T/C (dose: 5.0 mg/kg/injection, schedule: Q01DX005 (ip), vehicle: Klucel (hydroxypropylcellulose) (HPC)): 110 % of control | T/C (dose: 10.0 mg/kg/injection, schedule: Q01DX005 (ip), vehicle: Klucel (hydroxypropylcellulose) (HPC)): 120 % of control | T/C (dose: 20.0 mg/kg/injection, schedule: Q01DX005 (ip), vehicle: Klucel (hydroxypropylcellulose) (HPC)): 107 % of control

COc1cc(C=O)cc(Br)c1O
T/C (dose: 25.0 mg/kg/injection, schedule: Q01DX009 (ip), vehicle: Klucel (hydroxypropylcellulose) (HPC)): 108 % of control | T/C (dose: 50.0 mg/kg/injection, schedule: Q01DX009 (ip), vehicle: Klucel (hydroxypropylcellulose) (HPC)): 108 % of control | T/C (dose: 100.0 mg/kg/injection, schedule: Q01DX009 (ip), vehicle: Klucel (hydroxypropylcellulose) (HPC)): 108 % of control | T/C (dose: 200.0 mg/kg/injection, schedule: Q01DX009 (ip), vehicle: Klucel (hydroxypropylcellulose) (HPC)): 105 % of control

CC(C)CC(NC(=O)C(N)Cc1ccc(N(CCCl)CCCl)cc1)C(=O)O (stereo not drawn)
T/C (dose: 3.7 mg/kg/injection, schedule: Q04DX003 (ip), vehicle: saline with Tween-80): 155 % of control and 172 % of control | T/C (dose: 8.4 mg/kg/injection, schedule: Q04DX003 (ip), vehicle: saline with Tween-80): 187 % of control and 203 % of control | T/C (dose: 12.6 mg/kg/injection, schedule: Q04DX003 (ip), vehicle: saline with Tween-80): 204 % of control and 272 % of control | T/C (dose: 18.9 mg/kg/injection, schedule: Q04DX003 (ip), vehicle: saline with Tween-80): 108 % of control and 118 % of control | T/C (dose: 32.0 mg/kg/injection, schedule: Q04DX003 (ip), vehicle: saline with Tween-80): 158 % of control | T/C (dose: 42.6 mg/kg/injection, schedule: Q04DX003 (ip), vehicle: saline with Tween-80): 179 % of control | T/C (dose: 64.0 mg/kg/injection, schedule: Q04DX003 (ip), vehicle: saline with Tween-80): 190 % of control and 198 % of control | T/C (dose: 96.0 mg/kg/injection, schedule: Q04DX003 (ip), vehicle: saline with Tween-80): 243 % of control | T/C (dose: 128.0 mg/kg/injection, schedule: Q04DX003 (ip), vehicle: saline with Tween-80): 88 % of control

O=NNc1ccc2cccnc2n1
T/C (dose: 3.12 mg/kg/injection, schedule: Q01DX009 (ip), vehicle: water): 99 % of control and 115 % of control | T/C (dose: 6.25 mg/kg/injection, schedule: Q01DX009 (ip), vehicle: water): 116 % of control and 123 % of control | T/C (dose: 25.0 mg/kg/injection, schedule: Q01DX009 (ip), vehicle: water): 150 % of control | T/C (dose: 50.0 mg/kg/injection, schedule: Q01DX009 (ip), vehicle: water): 187 % of control and 206 % of control

NC1C2CC3CC(C2)CC1(N)C3 (stereo not drawn)
T/C [1]: 104 % of control | T/C [2]: 102 % of control | T/C [3]: 101 % of control and 96 % of control | T/C [7]: 99 % of control | T/C [8]: 99 % of control

CC(N)C(=O)NC(Cc1ccc(O)cc1)C(=O)NC(Cc1ccccc1)C(N)=O (stereo not drawn) (H-Ala-Tyr-Phe-NH2; configuration not given here)
T/C (dose: 50.0 mg/kg/injection, schedule: Q01DX005 (ip), vehicle: saline): 102 % of control | T/C (dose: 100.0 mg/kg/injection, schedule: Q01DX005 (ip), vehicle: saline): 101 % of control | T/C (dose: 200.0 mg/kg/injection, schedule: Q01DX005 (ip), vehicle: saline): 101 % of control

COc1ccc(Cc2ccc(OC)c(OC)c2)cc1OC
T/C (dose: 25.0 mg/kg/injection, schedule: Q04DX003 (ip), vehicle: saline with Tween-80): 99 % of control | T/C (dose: 50.0 mg/kg/injection, schedule: Q04DX003 (ip), vehicle: saline with Tween-80): 99 % of control | T/C (dose: 100.0 mg/kg/injection, schedule: Q04DX003 (ip), vehicle: saline with Tween-80): 113 % of control | T/C (dose: 200.0 mg/kg/injection, schedule: Q04DX003 (ip), vehicle: saline with Tween-80): 109 % of control | T/C (dose: 400.0 mg/kg/injection, schedule: Q04DX003 (ip), vehicle: saline with Tween-80): 120 % of control

CN1NC(C)(c2cccnc2)SC1=S (stereo not drawn)
T/C [3]: 95 % of control | T/C [7]: 100 % of control | T/C [8]: 97 % of control

COc1cc2c(c3c1c(=S)c1ccccc1n3C)C=CC(C)(C)O2
T/C [4]: 98 % of control | T/C [5]: 98 % of control | T/C [6]: 108 % of control

O=S1(=O)CC2=C(C1)C1C=CC2C2C=CC12 (stereo not drawn)
T/C (dose: 25.0 mg/kg/injection, schedule: Q04DX003 (ip), vehicle: saline): 98 % of control | T/C (dose: 50.0 mg/kg/injection, schedule: Q04DX003 (ip), vehicle: saline): 101 % of control | T/C (dose: 100.0 mg/kg/injection, schedule: Q04DX003 (ip), vehicle: saline): 107 % of control and 96 % of control

CCN(c1ccccc1)c1nsc(Cl)n1
T/C [3]: 101 % of control | T/C [7]: 104 % of control | T/C [8]: 104 % of control

CCCOC(=O)c1ccc(NC(=O)Nc2ccc(C(=O)OCC)cc2)cc1
T/C (dose: 60.0 mg/kg/injection, schedule: Q01DX005 (ip), vehicle: Klucel (hydroxypropylcellulose) (HPC)): 87 % of control | T/C (dose: 120.0 mg/kg/injection, schedule: Q01DX005 (ip), vehicle: Klucel (hydroxypropylcellulose) (HPC)): 90 % of control | T/C (dose: 240.0 mg/kg/injection, schedule: Q01DX005 (ip), vehicle: Klucel (hydroxypropylcellulose) (HPC)): 88 % of control

S=C(Nc1ccccc1)Nc1ncn[nH]1
T/C [4]: 101 % of control | T/C [5]: 100 % of control | T/C [6]: 99 % of control
